From ChEMBL document CHEMBL4715782, “Multitarget-directed oxoisoaporphine derivatives: Anti-acetylcholinesterase, anti-β-amyloid aggregation and enhanced autophagy activity against Alzheimer's disease” (Bioorg Med Chem, 2016)
Calls of active or inactive are those of the source. The calls are words filed in the database; no cut-off is given here.

Target: Acetylcholinesterase (Electrophorus electricus, UniProt O42275)
Experiment: Inhibition of electric eel AChE using acetylthiocholine chloride as substrate incubated for 15 mins by Ellman's method
Conditions: not given

Acetylcholinesterase, sequence (O42275 whole entry): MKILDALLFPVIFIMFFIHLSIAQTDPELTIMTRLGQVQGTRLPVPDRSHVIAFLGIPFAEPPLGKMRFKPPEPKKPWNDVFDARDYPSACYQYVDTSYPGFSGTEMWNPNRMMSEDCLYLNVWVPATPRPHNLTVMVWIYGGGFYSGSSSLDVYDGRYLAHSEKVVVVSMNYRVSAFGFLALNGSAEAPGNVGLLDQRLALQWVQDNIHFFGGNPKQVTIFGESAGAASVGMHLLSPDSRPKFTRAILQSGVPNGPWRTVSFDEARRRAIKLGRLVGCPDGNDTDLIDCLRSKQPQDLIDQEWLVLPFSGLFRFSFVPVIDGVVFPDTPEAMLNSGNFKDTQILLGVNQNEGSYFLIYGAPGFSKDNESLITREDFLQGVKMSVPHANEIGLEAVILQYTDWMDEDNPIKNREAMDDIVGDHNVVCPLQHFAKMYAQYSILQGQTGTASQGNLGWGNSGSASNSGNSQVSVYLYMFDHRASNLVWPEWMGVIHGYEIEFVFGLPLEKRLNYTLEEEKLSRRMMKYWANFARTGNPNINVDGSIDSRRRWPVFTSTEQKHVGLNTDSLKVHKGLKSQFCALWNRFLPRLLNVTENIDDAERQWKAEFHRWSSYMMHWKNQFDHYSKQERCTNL

With O=C(CCCN1CCCCC1)Nc1cccc2c1C(=O)c1cccc3ccnc-2c13 as the molecule, how does the IC50 read?
The IC50 was 187 nM.

Which IC50 does the source give for O=C(CCN1CCCCC1)Nc1cccc2c1C(=O)c1cccc3ccnc-2c13 here?
Its IC50 is 80.8 nM.

Which IC50 does the source give for O=C(CCCCCN1CCCCC1)Nc1c(Cl)ccc2c1-c1nccc3cccc(c13)C2=O here?
The IC50 was 380 nM.

For O=C(CN1CCCCC1)Nc1cccc2c1C(=O)c1cccc3ccnc-2c13, which IC50 is on record?
Its IC50 is 156 nM.

Which IC50 does the source give for O=C(CCN1CCCCC1)Nc1c(Cl)ccc2c1-c1nccc3cccc(c13)C2=O here?
The IC50 was 28.4 nM.

Which IC50 does the source give for O=C(CCCCN1CCCCC1)Nc1cccc2c1C(=O)c1cccc3ccnc-2c13 here?
The IC50 was 978 nM.

Which IC50 does the source give for O=C(CCCN1CCCCC1)Nc1c(Cl)ccc2c1-c1nccc3cccc(c13)C2=O here?
The IC50 was 148 nM.

With O=C(CCCCCN1CCCCC1)Nc1cccc2c1C(=O)c1cccc3ccnc-2c13 as the molecule, how does the IC50 read?
The IC50 was 472 nM.

With O=C(CCCCN1CCCCC1)Nc1c(Cl)ccc2c1-c1nccc3cccc(c13)C2=O as the molecule, how does the IC50 read?
Its IC50 is 1800 nM.

Which IC50 does the source give for O=C(CN1CCCCC1)Nc1c(Cl)ccc2c1-c1nccc3cccc(c13)C2=O here?
Its IC50 is 32.1 nM.

Target: Acetylcholinesterase (Electrophorus electricus) (UniProt O42275)
Sequence (O42275 24-633 limits assumed): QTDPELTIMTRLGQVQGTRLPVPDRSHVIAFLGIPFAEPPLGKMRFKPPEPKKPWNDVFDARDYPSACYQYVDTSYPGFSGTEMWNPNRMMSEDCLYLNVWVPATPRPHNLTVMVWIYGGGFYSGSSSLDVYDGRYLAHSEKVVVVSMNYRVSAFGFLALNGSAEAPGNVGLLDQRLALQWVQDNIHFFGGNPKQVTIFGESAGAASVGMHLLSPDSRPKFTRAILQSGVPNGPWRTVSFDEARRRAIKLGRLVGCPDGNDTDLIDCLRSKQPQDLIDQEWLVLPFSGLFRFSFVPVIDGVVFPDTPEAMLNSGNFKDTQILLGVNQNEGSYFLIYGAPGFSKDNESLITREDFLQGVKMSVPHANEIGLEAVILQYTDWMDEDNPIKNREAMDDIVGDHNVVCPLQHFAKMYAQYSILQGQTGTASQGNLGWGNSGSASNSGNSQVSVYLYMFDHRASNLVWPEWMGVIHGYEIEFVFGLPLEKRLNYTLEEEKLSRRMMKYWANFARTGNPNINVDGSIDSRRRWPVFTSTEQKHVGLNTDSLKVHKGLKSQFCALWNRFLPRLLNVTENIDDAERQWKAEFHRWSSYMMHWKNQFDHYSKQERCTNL
Experiment: Mixed type inhibition of electric eel AChE using acetylthiocholine chloride as substrate preincubated for 15 mins followed by substrate addition by reciprocal plot analysis
Conditions: not given

With O=C(CCN1CCCCC1)Nc1cccc2c1C(=O)c1cccc3ccnc-2c13 as the molecule, how does the inhibition read?
The inhibition was “Active”.

Which inhibition does the source give for O=C(CCN1CCCCC1)Nc1c(Cl)ccc2c1-c1nccc3cccc(c13)C2=O here?
The inhibition was “Active”.

Test system: Drosophila melanogaster
Experiment: In vivo inhibition of AChE in Elav-GAL4/UAS-Abeta42 hybrid Drosophila melanogaster assessed as reduction in intracephalic AChE levels by HPLC analysis
Format: functional
Conditions: dose 0.1-10 µM

Which inhibition does the source give for O=C(CCCN1CCCCC1)Nc1cccc2c1C(=O)c1cccc3ccnc-2c13 here?
Its inhibition is “Dose-dependent effect”.

With O=C(CCN1CCCCC1)Nc1cccc2c1C(=O)c1cccc3ccnc-2c13 as the molecule, how does the inhibition read?
The inhibition was “Dose-dependent effect”.

For O=C(CCCCCN1CCCCC1)Nc1c(Cl)ccc2c1-c1nccc3cccc(c13)C2=O, which inhibition is on record?
The inhibition was “Dose-dependent effect”.

With O=C(CN1CCCCC1)Nc1cccc2c1C(=O)c1cccc3ccnc-2c13 as the molecule, how does the inhibition read?
Its inhibition is “Dose-dependent effect”.

With O=C(CCN1CCCCC1)Nc1c(Cl)ccc2c1-c1nccc3cccc(c13)C2=O as the molecule, how does the inhibition read?
Its inhibition is “Dose-dependent effect”.

With O=C(CCCCN1CCCCC1)Nc1cccc2c1C(=O)c1cccc3ccnc-2c13 as the molecule, how does the inhibition read?
Its inhibition is “Dose-dependent effect”.

For O=C(CCCN1CCCCC1)Nc1c(Cl)ccc2c1-c1nccc3cccc(c13)C2=O, which inhibition is on record?
Its inhibition is “Dose-dependent effect”.

With O=C(CCCCCN1CCCCC1)Nc1cccc2c1C(=O)c1cccc3ccnc-2c13 as the molecule, how does the inhibition read?
The inhibition was “Dose-dependent effect”.

With O=C(CCCCN1CCCCC1)Nc1c(Cl)ccc2c1-c1nccc3cccc(c13)C2=O as the molecule, how does the inhibition read?
Its inhibition is “Dose-dependent effect”.

For O=C(CN1CCCCC1)Nc1c(Cl)ccc2c1-c1nccc3cccc(c13)C2=O, which inhibition is on record?
The inhibition was “Dose-dependent effect”.

Species on record: Homo sapiens
Experiment: Inhibition of self-induced amyloid beta (1 to 42) (unknown origin) aggregation at 10 uM after 48 hrs by thioflavin-T fluorescence method relative to control
Conditions: not given

For O=C(CCCN1CCCCC1)Nc1cccc2c1C(=O)c1cccc3ccnc-2c13, which inhibition is on record?
Its inhibition is 61.3%.

With O=C(CCN1CCCCC1)Nc1cccc2c1C(=O)c1cccc3ccnc-2c13 as the molecule, how does the inhibition read?
The inhibition was 76.1%.

With O=C(CCCCCN1CCCCC1)Nc1c(Cl)ccc2c1-c1nccc3cccc(c13)C2=O as the molecule, how does the inhibition read?
The inhibition was 67.7%.

Which inhibition does the source give for O=C(CN1CCCCC1)Nc1cccc2c1C(=O)c1cccc3ccnc-2c13 here?
The inhibition was 57.6%.

With O=C(CCN1CCCCC1)Nc1c(Cl)ccc2c1-c1nccc3cccc(c13)C2=O as the molecule, how does the inhibition read?
The inhibition was 74.6%.

Which inhibition does the source give for O=C(CCCCN1CCCCC1)Nc1cccc2c1C(=O)c1cccc3ccnc-2c13 here?
Its inhibition is 52.5%.

Which inhibition does the source give for O=C(CCCN1CCCCC1)Nc1c(Cl)ccc2c1-c1nccc3cccc(c13)C2=O here?
Its inhibition is 78.4%.

Which inhibition does the source give for O=C(CCCCCN1CCCCC1)Nc1cccc2c1C(=O)c1cccc3ccnc-2c13 here?
The inhibition was 55.7%.

With COc1cc(/C=C/C(=O)CC(=O)/C=C/c2ccc(O)c(OC)c2)ccc1O as the molecule, how does the inhibition read?
The inhibition was 45.1%.

For O=C(CCCCN1CCCCC1)Nc1c(Cl)ccc2c1-c1nccc3cccc(c13)C2=O, which inhibition is on record?
The inhibition was 71.2%.

With O=C(CN1CCCCC1)Nc1c(Cl)ccc2c1-c1nccc3cccc(c13)C2=O as the molecule, how does the inhibition read?
The inhibition was 51.3%.

Test system: not listed separately
Experiment: (§1) Inhibition of amyloid beta42 secretion in human SH-SY5Y cells overexpressing human APP Swedish mutant at 1 uM incubated for 24 hrs by ELISA
Format: functional
Conditions: not given

Which inhibition at 1 µM does the source give for O=C(CCN1CCCCC1)Nc1c(Cl)ccc2c1-c1nccc3cccc(c13)C2=O here?
Its inhibition at 1 µM is 46%.

Test system: SH-SY5Y
Experiment: as §1
Format: functional
Conditions: not given

With O=C(CCCN1CCCCC1)Nc1cccc2c1C(=O)c1cccc3ccnc-2c13 as the molecule, how does the inhibition read?
Its inhibition is “Active”.

With O=C(CCN1CCCCC1)Nc1cccc2c1C(=O)c1cccc3ccnc-2c13 as the molecule, how does the inhibition read?
The inhibition was “Active”.

Which inhibition does the source give for O=C(CCN1CCCCC1)Nc1c(Cl)ccc2c1-c1nccc3cccc(c13)C2=O here?
Its inhibition is “Active”.

For O=C(CN1CCCCC1)Nc1c(Cl)ccc2c1-c1nccc3cccc(c13)C2=O, which inhibition is on record?
The inhibition was “Active”.

Test system: Caenorhabditis elegans
Experiment: Induction of autophagy in Caenorhabditis elegans BC12921 expressing SQST-1-GFP fusion protein assessed as decrease in fluorescence intensity at 1 uM by microplate reader analysis
Format: functional
Set-up: scale not given: the % may be the effect or the level left
Conditions: not given

With O=C(CCN1CCCCC1)Nc1cccc2c1C(=O)c1cccc3ccnc-2c13 as the molecule, how does the Activity read?
The Activity was 28%.

With O=C(CCN1CCCCC1)Nc1c(Cl)ccc2c1-c1nccc3cccc(c13)C2=O as the molecule, how does the Activity read?
The Activity was 26.5%.

Test system: Drosophila melanogaster
Experiment: In vivo inhibition of AChE in Elav-GAL4/UAS-Abeta42 hybrid Drosophila melanogaster assessed as reduction in intracephalic AChE levels at 0.1 to 10 uM by HPLC analysis
Format: functional
Conditions: dose 0.1-10 µM

For O=C(CCN1CCCCC1)Nc1cccc2c1C(=O)c1cccc3ccnc-2c13, which inhibition is on record?
The inhibition was “Active”.

With O=C(CCN1CCCCC1)Nc1c(Cl)ccc2c1-c1nccc3cccc(c13)C2=O as the molecule, how does the inhibition read?
Its inhibition is “Active”.

With O=C(CCCN1CCCCC1)Nc1c(Cl)ccc2c1-c1nccc3cccc(c13)C2=O as the molecule, how does the inhibition read?
Its inhibition is “Active”.

Test system: not listed separately
Experiment: in vitro
Conditions: PAMPA
Description: Effective permeability of the compound in PBS/ethanol buffer (9:1) at 25 ug/ml after 10 hrs by UV plate reader based PAMPA-BBB assay

With O=C(CCCN1CCCCC1)Nc1cccc2c1C(=O)c1cccc3ccnc-2c13 as the molecule, how does the Papp at 10 h, 25 ug/ml read?
Its Papp at 10 h, 25 ug/ml is 1.52 ×10⁻⁶ cm/s.

For O=C(CCN1CCCCC1)Nc1cccc2c1C(=O)c1cccc3ccnc-2c13, which Papp at 10 h, 25 ug/ml is on record?
The Papp at 10 h, 25 ug/ml was 2.54 ×10⁻⁶ cm/s.

With O=C(CCCCCN1CCCCC1)Nc1c(Cl)ccc2c1-c1nccc3cccc(c13)C2=O as the molecule, how does the Papp at 10 h, 25 ug/ml read?
Its Papp at 10 h, 25 ug/ml is 2.72 ×10⁻⁶ cm/s.

For O=C(CN1CCCCC1)Nc1cccc2c1C(=O)c1cccc3ccnc-2c13, which Papp at 10 h, 25 ug/ml is on record?
Its Papp at 10 h, 25 ug/ml is 1.63 ×10⁻⁶ cm/s.

With O=C(CCN1CCCCC1)Nc1c(Cl)ccc2c1-c1nccc3cccc(c13)C2=O as the molecule, how does the Papp at 10 h, 25 ug/ml read?
The Papp at 10 h, 25 ug/ml was 8.24 ×10⁻⁶ cm/s.

With O=C(CCCCN1CCCCC1)Nc1cccc2c1C(=O)c1cccc3ccnc-2c13 as the molecule, how does the Papp at 10 h, 25 ug/ml read?
The Papp at 10 h, 25 ug/ml was 6.59 ×10⁻⁶ cm/s.

For O=C(CCCN1CCCCC1)Nc1c(Cl)ccc2c1-c1nccc3cccc(c13)C2=O, which Papp at 10 h, 25 ug/ml is on record?
Its Papp at 10 h, 25 ug/ml is 2.44 ×10⁻⁶ cm/s.

For O=C(CCCCCN1CCCCC1)Nc1cccc2c1C(=O)c1cccc3ccnc-2c13, which Papp at 10 h, 25 ug/ml is on record?
Its Papp at 10 h, 25 ug/ml is 4.92 ×10⁻⁶ cm/s.

For O=C(CCCCN1CCCCC1)Nc1c(Cl)ccc2c1-c1nccc3cccc(c13)C2=O, which Papp at 10 h, 25 ug/ml is on record?
Its Papp at 10 h, 25 ug/ml is 1.74 ×10⁻⁶ cm/s.

For O=C(CN1CCCCC1)Nc1c(Cl)ccc2c1-c1nccc3cccc(c13)C2=O, which Papp at 10 h, 25 ug/ml is on record?
The Papp at 10 h, 25 ug/ml was 1.36 ×10⁻⁶ cm/s.
